Where two headings read alike, the source gives them in different places.
Legend:
α-chymotrypsin [1] = target: T1, α-chymotrypsin (Bos taurus, UniProt P00766); test: TEM of α-Ch/azoTAB solutions; parameters: species or system bovine; settings: two weeks (fresh solution) or approx. one year (SANS solution, pH 3, 4.2 mM azoTAB)
T1 construct: α-Ch results from the removal of two dipeptides at positions 14-15 and 147-148 in chymotrypsinogen; purchased Sigma C-4129 (lot # 105K7670); host or cells: bovine pancreas
Protocol: Transmission electron microscopy was performed on a Philips EM420 TEM operating at 80 kV. A drop of protein solution was placed on a carbon-coated grid for 10 seconds and then blotted with filter paper, followed by repeating this procedure with a second drop. The grid was then placed in a freshly made 1 wt % uranyl acetate solution for 30 s.

[2] = cited from earlier work
α-chymotrypsin [3] = target: T1, α-chymotrypsin; test: FT-IR secondary structure of α-Ch/azoTAB mixtures; parameters: species or system bovine; settings: addition of trans azoTAB to pure α-Ch, and UV exposure of α-Ch/azoTAB
Protocol: Infrared spectra were measured with a Genesis II FT-IR spectrometer (Mattson Instruments). Solutions were loaded in a demountable liquid cell equipped with a circulating water jacket (T=20° C.) between a pair of CaF2 windows using a 50 μm Teflon spacer. A liquid light guide (Oriel, model no. 77557) was used to directly illuminate the sample with UV or visible light for 2 hours prior to and during data collection, as previously described (9). The sample chamber was continuously purged with dry air to eliminate the influence of water vapor. For each spectrum, a 500-scan interferogram was collected with a 2 cm^−1 resolution. The relatively sharp surfactant peaks at ˜1600 cm^−1 were removed by subtracting the spectra measured for a pure surfactant solution under otherwise identical conditions, resulting in corrected spectra that were flat in the region between 2000 and 1750 cm^−1. Fourier self-deconvolution (FSD) was applied to spectra to resolve the overlapping bands in the Amide I region using a band-narrowing factor k=2.0 and a full width at half height of 12.6 cm^−1. Second derivative spectra were obtained with the Savitsky-Golay function for a 3rd order polynomial, using a 13 data point window. […] Difference spectra obtained for pure α-chymotrypsin solutions without surfactant shown no significant absorbance changes (<1% throughout the amide I region).

α-chymotrypsin [4] = target: T1, α-chymotrypsin; test: Congo red staining, optical microscopy of α-Ch/azoTAB solution; parameters: species or system bovine; settings: α-Ch/azoTAB solution aged for five days
Protocol: Optical microscopy was performed on an Olympus IX71 inverted fluorescence microscope equipped using a 50× lens (Olympus, model SLCPlanFl) and a U-N41027 CAL CRIM C58158 filter cube (Chroma, model 058158). Images were recorded with a Hamamatsu digital CCD camera (model C4742-95). Aliquots (5-10 μL) of the protein-surfactant solution were deposited onto glass slides and dyed with an equal volume of a 400 μM Congo red aqueous solution.

chymotrypsinogen-A = target: T2, chymotrypsinogen-A (Bos taurus, UniProt P00766); test: SAXS of chymotrypsinogen-A/azoTAB solutions; parameters: species or system bovine
T2 construct: Chymotrypsinogen is the zymogen of α-chymotrypsin; purchased Worthington LS005630; host or cells: bovine pancreas
Protocol: The small-angle X-ray scattering data were measured using the X21 beamline at the National Synchrotron Light Source at the Brookhaven National Laboratory. (28) The X-ray wavelength was set to 1.24 Å with a pair of Si(111) monochromator crystals. The sample-to-detector distance was calibrated to be 1.69 m using a silver behenate standard. To avoid radiation damage, solutions were continuously passed at a flow rate of 60 μL/min through a 1-mm glass capillary housed within an aluminum block containing Plexiglas observation windows. (28) The net intensities were corrected for the background and solvent scattering as well as sample transmission, and were put on an absolute scale by comparison with a calibration standard (10 mg/mL BSA (10)).

α-chymotrypsin [5] = target: T1, α-chymotrypsin; test: SANS of α-chymotrypsin/azoTAB solutions (Guinier, PDDF, shape reconstruction); parameters: species or system bovine
Protocol: Small-angle neutron scattering experiments were performed on the 30-m NG3 SANS instruments at NIST. (24) A neutron wavelength of λ=6 Å and a detector offset of 25 cm with two sample-detector distances of 1.33 and 7.0 m were utilized to achieve a Q range of 0.0048-0.46 Å^−1. The net intensities were corrected for the background and empty cell (pure D2O), accounting for the detector efficiency using the scattering from an isotropic scatterer (Plexiglas), and converted to an absolute differential cross section per unit sample volume (in units of cm^−1) using an attenuated empty beam. The data were then corrected for incoherent scattering by subtracting a constant background. The shape-reconstruction algorithm GA_STUCT (11) was used to generate solution conformations, similar to previous studies (10, 11). Beginning with an initial guess of randomly-distributed scattering centers, the program rearranges the position of the scattering centers to best fit the experimental scattering data.
The weight-average molecular weight (Mw) of each sample was calculated from the equation
where ρS and ρP are the scattering length densities of the solvent (6.36×10^10 cm^−2) and protein (3.23×10^10 cm^−2), respectively, c is the protein concentration (11.6 mg/mL at pH 3 and 11.4 mg/mL at pH 7), and υ is the protein specific volume (0.734 cm^3/g). (25) I(0)-values were determined from Guinier plots (25) using I(Q)=I(0)exp(−Q^2Rg^2/3), where Rg is the radius of gyration. Guinier plots, generally valid for QRg<1.3, can be influenced by solution structuring due to intermolecular interactions between charged proteins, which becomes increasingly important as Q decreases below 1.5/R (10) (or <0.05 Å^−1 using an α-Ch radius ˜30 Å). Thus, pair distance distribution functions were calculated from the SANS data using the program GNOM (26) according to the equation
where P(r) is related to the probability of two scattering centers (nuclei for SANS) being a distance r+dr apart, and Dmax is the maximum distance between scattering centers within the protein or protein oligomer. I(0)-values were then obtained from the PDDFs through I(0)=4π∫0^D^maxP(r)dr, which has the advantage of utilizing the entire Q-range to determine I(O), as opposed to just the low-Q values as in Guinier analysis (27).

CCc1ccc(/N=N/c2ccc(OCC[N+](C)(C)C)cc2)cc1 [azoTAB, azobenzene-trimethylammonium bromide surfactant]
fibril diameter (α-chymotrypsin [1]): ca. 10 nm | isomer ratio ([2]; 350-nm UV light): 90/10 | trans isomer ([2]; in the dark, about 24 hours): ~100% | isomer ratio ([2]; visible light, 434 nm): 75/25 | cis→trans isomerization kinetics ([2]; visible light): within minutes | FT-IR change on association (α-chymotrypsin [3]): increase in peaks at 1612 and 1685 cm^−1 | Congo red staining result (α-chymotrypsin [4]): characteristic Congo red fluorescence as well as “apple green” birefringence | Rg of chymotrypsinogen (Guinier) (chymotrypsinogen-A; 24 mM azoTAB, visible light, 10.0 mg/mL protein): 19.7 Å | increase in I(0) relative to the monomer data (chymotrypsinogen-A; UV light, 19 mM and 24 mM azoTAB): 12 fold | time for complete visible-light induced dissociation of UV-equilibrated samples (chymotrypsinogen-A; re-exposure to 434-nm visible light): several hours | I(0) (chymotrypsinogen-A; visible light): 0.2 to 0.25 cm⁻¹ | Rg from second Guinier slope (monomer) (α-chymotrypsin [5]; Q^2 ~0.01-0.03 Å^-2, α-Ch/azoTAB solutions, pH 3 and pH 7, visible and UV): 17.0-18.2 Å | type of protein self-association (α-chymotrypsin [5]; UV light (cis azoTAB)): monomer-dodecamer equilibrium | Dmax of oligomer (PDDF) (α-chymotrypsin [5]; UV light, dodecamer): ~160 Å | most probable dimension (PDDF peak) (α-chymotrypsin [5]; UV light, dodecamer): 40-50 Å | effective oligomer size n^eff reached with increasing surfactant concentration (α-chymotrypsin [5]; UV light, SANS and SAXS data): 12 | scaling exponent of Rg^n with oligomer Mw (α-chymotrypsin [5]; hexamer or dodecamer, compared to monomer Rg): 0.42±0.03 | increase in Rg with the addition of azoTAB (α-chymotrypsin [5]; monomer Rg, Table 1): 7% | type of protein self-association (α-chymotrypsin [5]; visible light (trans azoTAB)): monomer-hexamer equilibrium | Dmax of oligomer (PDDF) (α-chymotrypsin [5]; visible light, hexamer): ~120 Å

Reference: US20090075318A1, “USING PHOTO-RESPONSIVE SURFACTANTS TO REVERSIBLY CONTROL PROTEIN AGGREGATION WITH LIGHT ILLUMINATION” (University of Southern California, priority 2007, published 2009)
